Laboratory results taken from ChEMBL document CHEMBL1201862, “PubChem BioAssay data set” (2004).
The source made the active and inactive calls.

Tests used:
[1] = target: Peroxisome proliferator-activated receptor gamma/Nuclear receptor coactivator 1 (Homo sapiens, UniProt P37231); assay: (§1) TR-FRET dose response biochemical High Throughput Screening assay for agonists of the steroid receptor coactivator 1 (SRC-1) recruitment by the peroxisome proliferator-activated receptor gamma (PPAR gamma): non-selective agonists. [Related pubchem assays (depositor defined):AID1300, AID1808, AID504735, AID631]; assay type: protein assay
[2] = target: Peroxisome proliferator-activated receptor gamma/Nuclear receptor coactivator 3 (Homo sapiens, UniProt P37231); assay: as §1, with “3 (SRC-3)” for “1 (SRC-1)”, “assays: 1301 (Confirmation screen.), 1048 (Primary screen.)]” for “assays (depositor defined):AID1300, AID1808, AID504735, AID631]”; assay type: functional
Peroxisome proliferator-activated receptor gamma/Nuclear receptor coactivator 3, sequence (P37231 whole entry): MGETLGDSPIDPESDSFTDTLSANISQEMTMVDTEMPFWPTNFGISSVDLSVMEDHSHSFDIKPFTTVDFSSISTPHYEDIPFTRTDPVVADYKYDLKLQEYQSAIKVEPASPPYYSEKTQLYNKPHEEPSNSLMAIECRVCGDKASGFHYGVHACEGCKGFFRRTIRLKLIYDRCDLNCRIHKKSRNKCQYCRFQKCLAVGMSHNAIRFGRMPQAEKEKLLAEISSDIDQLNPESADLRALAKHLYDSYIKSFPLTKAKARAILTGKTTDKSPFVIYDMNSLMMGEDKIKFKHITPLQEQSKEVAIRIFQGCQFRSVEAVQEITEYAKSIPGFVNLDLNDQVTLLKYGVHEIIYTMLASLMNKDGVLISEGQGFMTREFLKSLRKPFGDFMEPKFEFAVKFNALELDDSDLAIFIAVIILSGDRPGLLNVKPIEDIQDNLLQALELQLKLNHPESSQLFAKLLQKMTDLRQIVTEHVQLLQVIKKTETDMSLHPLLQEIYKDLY
Peroxisome proliferator-activated receptor gamma/Nuclear receptor coactivator 3, sequence (Q9Y6Q9 whole entry, further chain): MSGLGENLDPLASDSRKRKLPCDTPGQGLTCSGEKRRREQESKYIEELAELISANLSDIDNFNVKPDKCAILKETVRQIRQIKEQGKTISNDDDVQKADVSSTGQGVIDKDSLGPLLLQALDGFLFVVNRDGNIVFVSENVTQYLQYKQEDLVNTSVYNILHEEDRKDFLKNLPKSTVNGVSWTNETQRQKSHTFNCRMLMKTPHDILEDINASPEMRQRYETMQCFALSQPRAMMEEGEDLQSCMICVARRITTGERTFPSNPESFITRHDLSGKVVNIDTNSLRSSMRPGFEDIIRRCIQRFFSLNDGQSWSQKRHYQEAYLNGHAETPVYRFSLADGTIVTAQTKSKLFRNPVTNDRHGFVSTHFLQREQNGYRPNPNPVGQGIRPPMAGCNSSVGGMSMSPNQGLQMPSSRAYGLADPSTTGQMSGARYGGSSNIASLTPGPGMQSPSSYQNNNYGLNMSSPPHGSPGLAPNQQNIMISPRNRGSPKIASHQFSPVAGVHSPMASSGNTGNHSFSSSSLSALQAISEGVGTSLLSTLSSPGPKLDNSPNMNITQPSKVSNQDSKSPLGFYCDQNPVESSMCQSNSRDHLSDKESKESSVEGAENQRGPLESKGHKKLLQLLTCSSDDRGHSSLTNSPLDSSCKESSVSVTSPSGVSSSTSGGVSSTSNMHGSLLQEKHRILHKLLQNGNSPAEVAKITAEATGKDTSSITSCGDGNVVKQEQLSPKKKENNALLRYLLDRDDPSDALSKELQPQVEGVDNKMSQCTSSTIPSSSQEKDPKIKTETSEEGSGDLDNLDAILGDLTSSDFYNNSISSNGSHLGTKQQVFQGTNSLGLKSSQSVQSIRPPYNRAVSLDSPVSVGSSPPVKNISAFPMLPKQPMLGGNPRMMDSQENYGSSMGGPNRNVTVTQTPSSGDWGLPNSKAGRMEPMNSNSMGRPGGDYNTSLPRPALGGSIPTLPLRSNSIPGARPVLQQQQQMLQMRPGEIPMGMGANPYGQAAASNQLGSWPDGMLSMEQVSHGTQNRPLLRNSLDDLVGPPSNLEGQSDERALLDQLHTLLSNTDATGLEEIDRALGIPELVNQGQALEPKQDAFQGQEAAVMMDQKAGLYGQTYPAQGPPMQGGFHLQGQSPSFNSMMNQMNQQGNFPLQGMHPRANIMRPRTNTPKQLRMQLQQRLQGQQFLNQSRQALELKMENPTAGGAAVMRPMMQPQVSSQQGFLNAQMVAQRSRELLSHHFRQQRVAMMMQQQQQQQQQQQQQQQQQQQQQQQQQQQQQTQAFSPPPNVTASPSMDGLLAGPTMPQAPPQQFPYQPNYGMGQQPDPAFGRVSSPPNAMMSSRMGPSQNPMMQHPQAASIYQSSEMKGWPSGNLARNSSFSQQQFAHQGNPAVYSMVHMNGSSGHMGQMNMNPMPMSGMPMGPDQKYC

Large T antigen = Large T antigen (Simian virus 40, UniProt P03070); assay type: functional, Betapolyomavirus macacae;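 also: Confirmatory-stage PubChem screen for compounds that inhibit SV40 T antigen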
[3] = target: Peroxisome proliferator-activated receptor gamma/Nuclear receptor coactivator 2 (Homo sapiens, UniProt P37231); assay: TR-FRET dose response biochemical High Throughput Screening assay for agonists of the steroid receptor coactivator 2 (SRC-2) recruitment by the peroxisome proliferator-activated receptor gamma (PPAR gamma): non-selective agonists. [Related pubchem assays: 1297, 1032 ]; assay type: functional
Peroxisome proliferator-activated receptor gamma/Nuclear receptor coactivator 2, sequence (P37231 whole entry): as the sequence (P37231 whole entry) above
Peroxisome proliferator-activated receptor gamma/Nuclear receptor coactivator 2, sequence (Q15596 whole entry, further chain): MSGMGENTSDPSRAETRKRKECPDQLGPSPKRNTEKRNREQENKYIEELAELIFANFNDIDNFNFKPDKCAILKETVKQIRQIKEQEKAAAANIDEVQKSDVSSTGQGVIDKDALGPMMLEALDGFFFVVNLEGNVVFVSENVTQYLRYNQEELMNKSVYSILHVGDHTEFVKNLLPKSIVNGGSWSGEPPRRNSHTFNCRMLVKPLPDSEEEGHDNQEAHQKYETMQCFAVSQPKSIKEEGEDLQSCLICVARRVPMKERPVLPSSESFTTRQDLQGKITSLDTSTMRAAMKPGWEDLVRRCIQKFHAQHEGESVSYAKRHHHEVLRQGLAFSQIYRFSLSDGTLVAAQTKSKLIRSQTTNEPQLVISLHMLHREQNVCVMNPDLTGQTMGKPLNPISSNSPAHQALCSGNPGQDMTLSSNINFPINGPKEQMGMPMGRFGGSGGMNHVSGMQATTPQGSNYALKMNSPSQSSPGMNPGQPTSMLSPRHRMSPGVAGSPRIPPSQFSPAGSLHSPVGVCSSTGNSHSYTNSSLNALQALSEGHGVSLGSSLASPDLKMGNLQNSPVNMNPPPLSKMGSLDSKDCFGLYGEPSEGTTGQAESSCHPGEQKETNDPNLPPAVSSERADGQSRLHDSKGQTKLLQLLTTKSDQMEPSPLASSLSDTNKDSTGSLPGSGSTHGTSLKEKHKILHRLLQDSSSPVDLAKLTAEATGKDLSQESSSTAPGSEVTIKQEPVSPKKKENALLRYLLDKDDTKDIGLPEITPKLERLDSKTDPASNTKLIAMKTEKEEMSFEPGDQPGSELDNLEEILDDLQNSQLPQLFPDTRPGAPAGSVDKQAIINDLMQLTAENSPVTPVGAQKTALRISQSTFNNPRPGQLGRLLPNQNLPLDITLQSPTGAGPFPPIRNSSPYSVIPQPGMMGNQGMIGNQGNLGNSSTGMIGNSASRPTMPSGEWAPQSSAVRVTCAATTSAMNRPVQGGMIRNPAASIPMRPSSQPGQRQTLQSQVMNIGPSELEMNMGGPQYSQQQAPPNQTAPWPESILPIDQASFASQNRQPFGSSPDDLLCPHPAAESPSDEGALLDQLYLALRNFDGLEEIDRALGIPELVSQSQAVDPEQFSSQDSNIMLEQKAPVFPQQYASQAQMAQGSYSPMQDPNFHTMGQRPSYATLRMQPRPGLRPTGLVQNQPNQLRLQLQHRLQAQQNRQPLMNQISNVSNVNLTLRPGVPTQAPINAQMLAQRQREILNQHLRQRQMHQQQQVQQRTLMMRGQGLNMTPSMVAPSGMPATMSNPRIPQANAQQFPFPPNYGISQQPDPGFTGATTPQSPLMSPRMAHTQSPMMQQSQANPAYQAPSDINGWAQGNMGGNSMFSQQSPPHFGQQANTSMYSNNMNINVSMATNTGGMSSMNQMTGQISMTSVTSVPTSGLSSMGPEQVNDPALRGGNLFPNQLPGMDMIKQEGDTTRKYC

[4] = protection from phage-mediated lysis, alamar blue read-out – E. coli UTI89, K1F phage, bacterial capsule biogenesis inhibitors (AID 488966); assay type: functional
[5] = target: T1, Replicative DNA helicase DnaB (Mycobacterium tuberculosis, UniProt P9WMR3); assay: DnaB intein splicing inhibitors, dose response, biochemical, cell-free fluorescence (AID 449749); assay type: functional
T1 sequence (P9WMR3 whole entry): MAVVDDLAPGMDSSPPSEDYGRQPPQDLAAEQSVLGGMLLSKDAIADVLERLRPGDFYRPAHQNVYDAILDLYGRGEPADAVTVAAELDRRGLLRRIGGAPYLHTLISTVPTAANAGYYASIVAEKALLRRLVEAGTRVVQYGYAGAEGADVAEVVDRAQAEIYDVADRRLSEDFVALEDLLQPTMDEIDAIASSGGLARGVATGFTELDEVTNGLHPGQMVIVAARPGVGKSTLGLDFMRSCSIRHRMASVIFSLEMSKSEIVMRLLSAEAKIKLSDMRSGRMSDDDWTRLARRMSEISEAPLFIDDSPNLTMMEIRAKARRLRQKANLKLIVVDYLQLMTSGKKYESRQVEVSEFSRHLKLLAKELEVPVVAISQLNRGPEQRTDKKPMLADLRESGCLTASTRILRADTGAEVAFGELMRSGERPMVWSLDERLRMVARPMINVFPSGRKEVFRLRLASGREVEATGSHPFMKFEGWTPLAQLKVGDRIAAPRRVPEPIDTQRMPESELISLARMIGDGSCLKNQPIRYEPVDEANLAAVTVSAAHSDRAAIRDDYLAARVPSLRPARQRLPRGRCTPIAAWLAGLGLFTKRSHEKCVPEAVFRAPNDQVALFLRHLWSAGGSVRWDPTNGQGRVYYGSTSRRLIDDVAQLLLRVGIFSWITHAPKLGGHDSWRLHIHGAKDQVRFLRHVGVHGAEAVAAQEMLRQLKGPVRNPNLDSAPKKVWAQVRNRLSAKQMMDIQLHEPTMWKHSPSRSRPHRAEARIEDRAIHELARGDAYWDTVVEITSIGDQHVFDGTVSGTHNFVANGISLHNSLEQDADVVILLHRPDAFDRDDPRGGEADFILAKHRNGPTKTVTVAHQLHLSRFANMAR

[6] = target: T2, Endoribonuclease toxin MazF (Escherichia coli K-12, UniProt P0AE70); assay: activation of MazEF endoribonuclease cleavage – biochemical, fluorescence, single-stranded RNA substrate, uHTS hits, dose response (AID 588481); assay type: functional
T2 sequence (P0AE70 whole entry): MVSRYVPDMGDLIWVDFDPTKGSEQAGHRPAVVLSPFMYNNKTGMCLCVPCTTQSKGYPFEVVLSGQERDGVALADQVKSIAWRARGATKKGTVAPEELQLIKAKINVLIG

Vero = assay: viability of Vero cells under compound – cytotoxicity control for flavivirus capping enzyme inhibitors (AID 588742); assay type: functional; conditions: Chlorocebus sabaeus
Protein RecA = target: T3, Protein RecA (Mycobacterium tuberculosis, UniProt P9WHJ3); assay: Fluorescence Cell-Free Homogeneous Dose Retest to Identify Inhibitors of RecA-Intein Splicing Activity. [Related pubchem assays (depositor defined):AID2097, AID2223, AID489010, AID492950]; assay type: functional
T3 sequence (P9WHJ3 whole entry): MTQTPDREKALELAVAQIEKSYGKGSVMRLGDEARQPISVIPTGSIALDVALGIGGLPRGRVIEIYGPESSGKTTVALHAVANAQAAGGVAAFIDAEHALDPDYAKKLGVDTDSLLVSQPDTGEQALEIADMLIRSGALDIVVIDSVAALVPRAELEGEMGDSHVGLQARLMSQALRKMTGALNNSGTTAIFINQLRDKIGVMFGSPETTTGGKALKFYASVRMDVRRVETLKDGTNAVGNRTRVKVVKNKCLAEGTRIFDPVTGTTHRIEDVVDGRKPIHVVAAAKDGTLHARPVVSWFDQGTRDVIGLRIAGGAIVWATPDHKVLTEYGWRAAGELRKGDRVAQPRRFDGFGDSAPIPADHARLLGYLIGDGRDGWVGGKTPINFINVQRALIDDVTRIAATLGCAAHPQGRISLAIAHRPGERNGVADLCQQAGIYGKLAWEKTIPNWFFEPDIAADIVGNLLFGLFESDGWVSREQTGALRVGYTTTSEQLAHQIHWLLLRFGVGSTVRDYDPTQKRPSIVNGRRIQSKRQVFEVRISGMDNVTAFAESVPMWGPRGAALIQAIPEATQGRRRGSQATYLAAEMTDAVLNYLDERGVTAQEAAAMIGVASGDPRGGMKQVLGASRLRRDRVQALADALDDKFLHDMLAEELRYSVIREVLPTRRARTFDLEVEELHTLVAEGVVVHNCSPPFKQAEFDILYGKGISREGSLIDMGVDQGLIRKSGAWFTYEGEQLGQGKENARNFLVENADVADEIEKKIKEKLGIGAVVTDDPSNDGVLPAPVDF

[7] = target: T2, Endoribonuclease toxin MazF; assay: substrate-only fluorescence increase artefacts – biochemical, single-stranded RNase substrate, counter-screen for MazEF activator project, dose response (AID 588502); assay type: functional
BJ [8] = assay: BJ-TERT fibroblast viability loss – cell-based, RAS-independent, luminescence, dose response (AID 1933); assay type: functional; conditions: Homo sapiens
BJ [9] = assay: cells; assay type: functional, cell-based; conditions: Homo sapiens
[10] = target: T4, Mannose-6-phosphate isomerase (Homo sapiens, UniProt P34949); assay: MPI enzyme activity inhibition – biochemical, fluorescence intensity, coupled assay, primary screen (AID 1209)
T4 sequence (P34949 whole entry): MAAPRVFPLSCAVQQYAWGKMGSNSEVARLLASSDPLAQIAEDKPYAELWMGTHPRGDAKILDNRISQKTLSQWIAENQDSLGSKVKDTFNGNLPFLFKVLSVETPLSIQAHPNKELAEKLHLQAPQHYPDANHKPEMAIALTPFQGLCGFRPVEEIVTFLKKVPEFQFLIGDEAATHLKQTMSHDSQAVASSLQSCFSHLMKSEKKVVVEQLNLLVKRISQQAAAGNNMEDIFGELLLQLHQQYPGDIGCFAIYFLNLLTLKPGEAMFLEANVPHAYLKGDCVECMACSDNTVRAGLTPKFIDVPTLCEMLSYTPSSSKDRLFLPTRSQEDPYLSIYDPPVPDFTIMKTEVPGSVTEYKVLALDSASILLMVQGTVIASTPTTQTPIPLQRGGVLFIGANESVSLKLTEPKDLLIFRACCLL

[11] = target: Bifunctional protein GlmU (Mycobacterium tuberculosis, UniProt P9WMN3); assay: Inhibitors of Mycobacterial Glucosamine-1-phosphate acetyl transferase (GlmU). Secondary screen.; set-up: species or system Mycobacterium tuberculosis H37Rv
J774.A1 = assay: Confirmation of image-based Screening Assay for Inhibitors of Phagocytosis. [Related pubchem assays (depositor defined):AID1029, AID1643]; assay type: functional, cell-based; conditions: Mus musculus
BJ [12] = assay: BJ-TERT-LT-ST fibroblast viability loss – cell-based, RAS-independent, luminescence, dose response (AID 1935); assay type: functional; conditions: Homo sapiens;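 also: BJ fibroblasts immortalized with TERT plus LT and ST oncogenes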
[13] = DRD fibroblast viability loss – cell-based, non-viral oncogenic, luminescence, dose response (AID 1934); assay type: functional; conditions: Homo sapiens
[14] = target: T4, Mannose-6-phosphate isomerase; assay: MPI inhibition at elevated mannose 6-phosphate – biochemical, fluorescence intensity, high mannose 6-phosphate, primary screen (AID 1220)
X-box-binding protein 1 = X-box-binding protein 1 (Homo sapiens, UniProt P17861); assay type: functional, Cricetulus griseus;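 also: confirmatory dose-response counter-screen serving a CHOP assay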
X-box-binding protein 1, sequence (P17861 whole entry): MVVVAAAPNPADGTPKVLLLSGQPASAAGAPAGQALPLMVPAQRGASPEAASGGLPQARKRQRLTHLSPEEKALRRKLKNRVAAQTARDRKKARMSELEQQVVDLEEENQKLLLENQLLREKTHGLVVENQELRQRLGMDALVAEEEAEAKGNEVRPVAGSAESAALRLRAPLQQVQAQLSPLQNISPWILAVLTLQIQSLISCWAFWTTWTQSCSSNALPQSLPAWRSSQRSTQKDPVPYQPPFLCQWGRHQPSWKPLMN

[15] = target: Heat shock protein HSP 90-alpha (Homo sapiens, UniProt P07900); assay type: functional, organism-based
BJ [16] = assay: growth inhibition of engineered Ras-driven BJ cells – cell-based, alamar blue fluorescence, cherrypicked samples, dose response (AID 2631); assay type: functional; conditions: Homo sapiens;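 also: confirmatory dose-response assay in RAS-dependent BJ fibroblasts engineered with TERT, LT and ST, with cytotoxicity read by fluorescence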
[17] = Fluorescence-based cell-based high throughput dose response assay for inhibitors of the interaction of nucleotide-binding oligomerization domain containing 2 (NOD2) and the receptor-interacting serine-threonine kinase 2 (RIPK2).; assay type: functional; conditions: Homo sapiens
[18] = target: T5, Dual specificity protein phosphatase 3 (Homo sapiens, UniProt P51452); assay: SAR VHR1 absorbance Assay for In Vitro dose response studies. [Related pubchem assays (depositor defined):AID1654, AID1661, AID1878, AID1992, AID2004]
T5 sequence (P51452 whole entry): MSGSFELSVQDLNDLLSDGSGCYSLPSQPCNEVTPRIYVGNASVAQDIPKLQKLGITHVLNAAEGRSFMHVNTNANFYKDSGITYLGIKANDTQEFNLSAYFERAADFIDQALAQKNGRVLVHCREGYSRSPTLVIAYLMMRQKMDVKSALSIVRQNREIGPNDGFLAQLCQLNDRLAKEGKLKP

[19] = target: T5, Dual specificity protein phosphatase 3; assay: SAR VHR1 Fluorescent Assay for In Vitro dose response studies. [Related pubchem assays (depositor defined):AID1654, AID1661, AID1878, AID1992, AID2004, AID2070, AID2085]; assay type: functional
[20] = target: T6, Tyrosine-protein phosphatase non-receptor type 7 (Homo sapiens, UniProt P35236); assay: redox-active compounds inhibiting HePTP phosphatase – biochemical, fluorescence, mechanism study (AID 2068); assay type: functional
T6 sequence (P35236 whole entry): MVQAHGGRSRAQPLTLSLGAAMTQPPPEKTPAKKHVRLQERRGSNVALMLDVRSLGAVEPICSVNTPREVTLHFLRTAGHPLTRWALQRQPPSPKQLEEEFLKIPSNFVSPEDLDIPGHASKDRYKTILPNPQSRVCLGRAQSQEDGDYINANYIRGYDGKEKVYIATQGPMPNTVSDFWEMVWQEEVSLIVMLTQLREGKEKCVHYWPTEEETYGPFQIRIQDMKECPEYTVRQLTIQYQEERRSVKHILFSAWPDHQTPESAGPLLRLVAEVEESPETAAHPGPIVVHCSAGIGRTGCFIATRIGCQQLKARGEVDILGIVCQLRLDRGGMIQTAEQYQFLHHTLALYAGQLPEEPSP

[21] = target: T7, Dual specificity protein phosphatase 6 (Rattus norvegicus, UniProt Q64346); assay: SAR analysis of inhibitors of MKP-3 - Set 2. [Related pubchem assays (depositor defined):AID1055, AID1661, AID425, AID553, AID566]; assay type: functional
T7 sequence (Q64346 whole entry): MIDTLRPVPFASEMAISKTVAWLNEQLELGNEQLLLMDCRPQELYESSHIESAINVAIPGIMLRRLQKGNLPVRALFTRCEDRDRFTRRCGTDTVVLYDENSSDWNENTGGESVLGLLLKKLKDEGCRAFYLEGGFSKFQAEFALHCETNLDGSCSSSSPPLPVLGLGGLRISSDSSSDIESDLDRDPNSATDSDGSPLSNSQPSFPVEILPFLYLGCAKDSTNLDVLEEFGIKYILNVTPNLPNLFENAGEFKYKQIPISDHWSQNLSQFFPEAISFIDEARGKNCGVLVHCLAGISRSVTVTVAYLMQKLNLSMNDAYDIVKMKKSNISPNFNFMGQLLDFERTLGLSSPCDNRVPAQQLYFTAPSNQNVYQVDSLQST

[22] = target: T6, Tyrosine-protein phosphatase non-receptor type 7; assay: SAR analysis of chemical inhibitors of HePTP using a Fluorescent assay - Set 2. [Related pubchem assays (depositor defined):AID1059, AID1077, AID1661, AID2085, AID521]; assay type: functional
[23] = target: T5, Dual specificity protein phosphatase 3; assay: SAR VHR1 Fluorescent Assay for In Vitro dose response studies Set 2. [Related pubchem assays (depositor defined):AID1654, AID1661, AID1878]; assay type: functional
[24] = target: T7, Dual specificity protein phosphatase 6; assay type: functional
[25] = target: Eukaryotic translation initiation factor 4H (Homo sapiens, UniProt Q15056); assay: inhibitors of translation initiation factor eIF4H – SAR follow-up (AID 435011); assay type: functional
[26] = target: Polyadenylate-binding protein 1 (Homo sapiens, UniProt P11940); assay: PABP inhibition in translation initiation, SAR follow-up (AID 435018); assay type: functional
Polyadenylate-binding protein 1, sequence (P11940 whole entry): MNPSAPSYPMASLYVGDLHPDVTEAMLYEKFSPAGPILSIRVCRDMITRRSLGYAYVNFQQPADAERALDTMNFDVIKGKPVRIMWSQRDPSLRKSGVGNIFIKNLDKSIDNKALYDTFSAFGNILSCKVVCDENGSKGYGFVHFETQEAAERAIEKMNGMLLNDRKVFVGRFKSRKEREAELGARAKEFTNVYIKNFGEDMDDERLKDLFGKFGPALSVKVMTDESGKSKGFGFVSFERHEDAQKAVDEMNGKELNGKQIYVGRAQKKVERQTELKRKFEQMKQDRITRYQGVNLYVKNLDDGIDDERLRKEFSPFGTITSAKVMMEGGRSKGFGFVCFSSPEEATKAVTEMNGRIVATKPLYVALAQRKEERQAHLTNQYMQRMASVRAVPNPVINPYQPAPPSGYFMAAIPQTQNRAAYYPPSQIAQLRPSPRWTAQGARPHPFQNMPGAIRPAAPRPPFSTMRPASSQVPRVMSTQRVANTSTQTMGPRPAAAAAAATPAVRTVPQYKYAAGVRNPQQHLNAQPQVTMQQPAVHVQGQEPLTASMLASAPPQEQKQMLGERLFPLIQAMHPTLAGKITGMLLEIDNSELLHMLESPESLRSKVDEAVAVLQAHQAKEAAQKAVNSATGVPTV

## CC(=O)Oc1c(/C=C(\C#N)C(N)=O)[nH]c2ccccc12
[1]
  EC50: 20.5 µM (inactive)
[2]
  EC50: > 79.4 µM (not active)
Large T antigen
  IC50: 22.8 µM (active)
[3]
  EC50: 22.6 µM (not active)
[4]
  IC50: > 300 µM (active)
[5]
  AC50: > 380 µM (inconclusive)
[6]
  EC50: > 99 µM (inactive)
Vero
  CC50: > 40 µM (active)
Protein RecA
  EC50: 0.0314 µM (active)
[7]
  EC50: > 99 µM (inactive)

## CC1=CC(=O)C=C(C)C1=NOS(=O)(=O)c1ccccc1
BJ [8]
  EC50: 4.5 µM (active)
BJ [9]
  EC50: 4.78 µM (active)
[10]
  IC50: 14.4 µM (active)
[11]
  IC50: 165 µM (active)
J774.A1
  IC50: 0.47 µM (active)
BJ [12]
  EC50: 5.67 µM (inconclusive)
[13]
  EC50: 7.26 µM (active)
[14]
  IC50: 47.3 µM (active)
X-box-binding protein 1
  Absolute IC50 (XBP1): 10 µM
[15]
  AC50: 0.928 µM (active)
BJ [16]
  EC50: 1.35 µM (inconclusive)
[17]
  IC50: 5.52 µM (active)

## CCOc1ccc(-n2c(N)c(C(=O)N3CCN(C)CC3)sc2=S)cc1
[18]
  IC50: > 100 µM (inactive)
[19]
  IC50: > 99 µM (inactive)
[20]
  IC50: > 100 µM (inactive)
[21]
  IC50: > 100 µM (inactive)
[22]
  IC50: > 100 µM (inactive)
[23]
  IC50: > 100 µM (inactive)
[24]
  IC50: > 99 µM (inactive)

## O=C(Nc1ccccc1)C1CCN(C(=O)c2cccs2)CC1
[25]
  IC50: 21.4 µM (active)
[26]
  IC50: 7.49 µM (active)
